Values after ≈ are worked out from the molar mass of the structure shown.

Experiment [1] concerns Leishmania amazonensis promastigotes. As to the kind of experiment: Viability assay of promastigotes, XTT colorimetric method (LD50). The class given is cell-based, Leishmania amazonensis (MHOM/BR/1977/LTB0016). As to conditions: 25°C. How it is done: The viability of L. amazonensis (MHOM/BR/1977/LTB0016) promastigotes was evaluated using the XTT colorimetric method, which consists in the XTT salt degradation by the mitochondria forming formazan crystals. Promastigote forms (2×10^7 parasites/mL) from a culture in logarithmic growth phase were incubated with lapachol and β-lapachone diluted in 199 culture medium. The drugs were diluted in series, in a ratio of two, starting from 1/2, on a 96-well cell culture plate (TPP™ test plate, Switzerland). The compounds were tested at concentrations from 204.4 to 0.40 µg/mL (lapachol) and 157.5 to 0.31 µg/mL (β-lapachone). After 24, 48, and 72 h of incubation at 25°C, 100 μL of the XTT solution (500 μg/mL) activated with PMS (50 μg/mL) were added to each well and incubated for 4 h at 37°C. The result was measured by absorbance, determined by spectrophotometry (450/650 nm filter, VersaMax™ ELISA microplate reader, USA). The lethal dose (LD50) was defined as the concentrations of the compounds that reduced survival of L. amazonensis by 50% compared to untreated parasites in culture medium. AmB (1.96 to 0.25 µg/mL) was used as positive control of leishmanicidal activity. The therapeutic selectivity index (TSI CC50/LD50) was calculated by the ratio of toxicity to macrophage vs toxicity to parasites after 24 h incubation ([28]). All assays were performed in triplicate and repeated at least three times.

Experiment [2] has the same test system. In words: Promastigote growth inhibition, counting in Neubauer chamber (IC50). The class given is cell-based, Leishmania amazonensis (MHOM/BR/1977/LTB0016). To be noted: Leishmania amazonensis; 24 h incubation, growth inhibition by counting. How it is done:
Leishmania growth was evaluated after 24 h of incubation at 25°C with the compounds under the same conditions as previously mentioned. Then, 10 µL of the content of each well was added to a 990 µL (1/100) of formalin solution (2%), and the parasites were counted in a Neubauer chamber. The inhibitory concentration (IC50) of promastigotes was calculated by comparing with untreated promastigotes in culture medium. The results were evaluated by linear regression of the inhibition percentage. The selectivity index (SI CC50/IC50) was calculated by the ratio of toxicity concentration to macrophage vs inhibitory concentration to the parasite growth after 24 h incubation ([27]). All assays were performed in triplicate and repeated at least three times.

Experiment [3] has the same test system. In words: Change in cell volume and morphology of the parasites (flow cytometry FSC-H/SSC-H, SEM). To be noted: 24 h; lapachol 76.62 µg/mL, β-lapachone 1.63 µg/mL, H2O2 2 mM; untreated 93.14%. The class given is cell-based. How it is done:
Promastigote forms (2×10^7 cells) of L. amazonensis untreated (negative control) or treated with 76.62 µg/mL of lapachol and 1.63 µg/mL of β-lapachone were analyzed to observe changes in cell morphology of the parasites induced by the treatment after 24 h of incubation. […] Subsequently, the parasites were analyzed using a BD FacsCalibur flow cytometer (Becton Dickinson, USA) and CellQuest Pro software (Joseph Trotter, Scripps Research Institute, USA), and 10,000 events were acquired. Dot plots were generated, the forward scatter (FSC-H) parameter was analyzed as presenting a correlation with the cell volume.
Scanning electron microscopy (SEM) also was performed to analyze morphological changes in cell surface topography. After 24 h of treatment, the parasites were centrifuged at 576 g for 10 min, and the samples were fixed in 2.5% glutaraldehyde and 0.1 M sodium cacodylate buffer. Poly-L-lysine was used to promote the adhesion of fixed parasites on coverslips. Promastigotes were dehydrated with increasing ethanol concentrations (30-100%), submitted to critical point drying, and metalized with gold for visualization on a Shimadzu 55-550 (Japan) microscope.

The test system is the same in experiment [4]. In words: Mitochondria membrane potential (ΔΨm), Rh123 flow cytometry. The class given is cell-based. To be noted: for Reduction in ΔΨm: lapachol 76.62 µg/mL, β-lapachone 1.63 µg/mL, H2O2 2 mM; for Variation Index (VI) of Rh123 fluorescence, (MT−MC)/MC: lapachol 76.62 μg/mL, β-lapachone 1.63 μg/mL, PC 2 mM. The procedure: The ΔΨm was determined using on BD FacsCalibur™ flow cytometer and CellQuest Pro software, with a total of 10.000 events acquired, using a mitochondrial-specific green-fluorescent dye Rh123 ([31]). Briefly, L. amazonensis (2×10^7 parasites/mL) were incubated with lapachol (76.62 µg/mL) and β-lapachone (1.63 µg/mL) for 1, 4, and 24 h at 25°C. After washed with PBS, the parasites were incubated with 5 μg/mL Rh123 for 15 min. After the incubation time, the cells were washed and suspended in PBS for additional incubation of 30 min for analysis. The percentage of fluorescence of Rh123, was determined by the (MT/MC)*100 equation, with MT representing the median fluorescence of the treated parasites and the MC the median fluorescence of negative controls. Alteration in ΔΨm was quantified using an index of variation (IV) obtained by the equation IV = (MT - MC)/MC, where negative IV values correspond to depolarization of the mitochondrial membrane. H2O2 (2 mM) was used as a positive control ([32]).

Consider `C[C@@H]1[C@H](O)[C@@H](C)/C=C/C=C/C=C/C=C/C=C/C=C/C=C/[C@H](O[C@@H]2O[C@H](C)[C@@H](O)[C@H](N)[C@@H]2O)C[C@@H]2O[C@](O)(C[C@@H](O)C[C@@H](O)[C@H](O)CC[C@@H](O)C[C@@H](O)CC(=O)O[C@H]1C)C[C@H](O)[C@H]2C(=O)O` [AmB, Amphotericin B, reference compound], for which the entries for the “Promastigotes LD50” value in experiment [1] (24 h incubation), in experiment [1] (48 h incubation) and in experiment [1] (72 h incubation) were 0.97 ± 0.09 µg/mL, 1.65 ± 0.02 µg/mL and 0.80 ± 0.03 µg/mL, respectively. In experiment [2], this compound returned an IC50 of 0.632 ± 0.12 µg/mL (≈ 0.684 µM).

In the case of `OO` [H2O2, reference compound], the “Percentage population of the lower left quadrant gate (FSC-H/SSC-H, cell volume)” value in experiment [3] stood at 49.51%. For the same compound, the “Reduction in ΔΨm” value in experiment [4] (1 h) is on record as 97%; in experiment [4] (24 h), 98%. Further, the figures for the “Variation Index (VI) of Rh123 fluorescence, (MT−MC)/MC” value in experiment [4] (1 h), in experiment [4] (4 h) and in experiment [4] (24 h) were -0.97, -0.98 and -0.98, respectively.

The values above are taken from article PMC10229078, “In vitro effects of lapachol and β-lapachone against Leishmania amazonensis” (Brazilian Journal of Medical and Biological Research, 2023).
